From paper PMC10791743, “Selective CK1α degraders exert antiproliferative activity against a broad range of human cancer cell lines” (Nature Communications, 2024)
Where “and” joins values, the source holds several entries; their conditions need not be identical. Identical values can stand only once.

Key:
[1] = test system: panel of 9 human cancer cell lines (HD-MB03, MB004, MB002, MHH-CALL4, MOLM-13, TF-1, HEL, OCI-AML3, AML193); assay: Molecular glue library screening, CellTiter-Glo cell viability, 72 h; assay type: cell-based; details: CTG, dose-response
Description: We screened our molecular glue library (3630 compounds) against a panel of 9 pediatric cancer cell lines to identify molecules displaying cell-selective sensitivities. In addition to the four cell lines we previously described (MB002, MB004, HD-MB03, and MHHCALL-4)[27], we included five additional AML cell lines (MOLM-13, TF-1, HEL, OCI-AML3, and AML193) to cover a broader range of genetic diversity and cancer vulnerabilities. The library screening was performed in high throughput (384-well plates) by incubating the cells with compounds for 72 h and assessing cell viability via CellTiter-Glo (CTG) in a dose–response manner, as reported previously.
The primary screen was performed in 384-well format using the CellTiter Glo (CTG) luminescent cell viability assay (Promega) as previously described. 3630 compounds from the St. Jude proprietary molecular glue library were screened against 9 human cancer cell lines (HD-MB03, MB004, MB002, MHH-CALL4, MOLM-13, TF-1, HEL, OCI-AML3, AML193). Each cell line was cultured in the complete medium recommended by the vendor and seeded in Corning 8804 BC white 384-well assay plates at densities of 1000, 1000, 1500, 7500, 1250, 156, 625, 1250, 1250 cells per well for HD-MB03, MB004, MB002, MHH-CALL4, MOLM-13, TF-1, HEL, OCI-AML, AML193, respectively. After overnight incubation at 37 °C in a humidified 5% CO2 incubator, cells were treated with compounds in dose–response format using a Pintool on a Biomek FX^P Laboratory Automation Workstation (Beckman Coulter). After 72 h of incubation, cell proliferation was assessed using a CellTiter-Glo (CTG) luminescent cell viability assay (Promega) according to the manufacturer’s instructions. Luminescence signal was measured using an EnVision plate reader (PerkinElmer).

MOLM-13 cells = assay: MOLM-13 cell viability assay (CTG, 72 h); assay type: cell-based, human; set-up: key to Cell viability in MOLM-13 cells / cell viability, dose-response replicate values: % viability = 100 − % activity, normalized to controls; details: for Cell viability in MOLM-13 cells: Lenalidomide series
Description: The primary screen was performed in 384-well format using the CellTiter Glo (CTG) luminescent cell viability assay (Promega) as previously described. […] After overnight incubation at 37 °C in a humidified 5% CO2 incubator, cells were treated with compounds in dose–response format using a Pintool on a Biomek FX^P Laboratory Automation Workstation (Beckman Coulter). […] Luminescence signal was measured using an EnVision plate reader (PerkinElmer). […]
number per well and incubated overnight at 37 °C in a humidified 5 % CO2 incubator. Compounds were transferred to the assay plate from a dose-response plate using a Labcyte Echo 650 Acoustic Liquid Handler (Beckman Coulter , USA). […]
using Promega’s CellTiter-Glo reagent according to the manufacturer’s recommendation.
Luminescence was measured on the Envision plate reader (PerkinElmer, USA). Raw luminescence relative light unit (RLU) values for each compound at each concentration were normalized to obtain % activity using the following equation (1): 100 × [(mean(negctrl) – compound)/(mean (negctrl) – mean (posctrl))]. The % activity was converted to % viability using the following equation (2):
(100 – % activity), and then pooled from replicate experiments prior to fitting. Here, negctrl and posctrl refer to the negative (DMSO) and positive controls (staurosporine) on each plate. Dose-response curves were fit to the Hill equation using the GraphPad Prism (version 10). […]

## Nc1cccc2c1CN(C1CCC(=O)NC1=O)C2=O (centres unmarked) [lenalidomide, reference compound]
[1]
  Cell viability across the panel of AL and MB cell lines: inactive
MOLM-13 cells; CTG 72 h
  Effect on MOLM-13 cell viability (cytotoxicity): did not show appreciable cytotoxicity
MOLM-13 cells; Conc 0.00055545
  Cell viability in MOLM-13 cells: 109.633 and 88.9306 and 94.0401
MOLM-13 cells; Conc 0.00166636
  Cell viability in MOLM-13 cells: 93.576 and 90.3639 and 96.1559
MOLM-13 cells; Conc 0.00499909
  Cell viability in MOLM-13 cells: 90.3167 and 93.3429 and 87.1
MOLM-13 cells; Conc 0.0149973
  Cell viability in MOLM-13 cells: 104.685 and 79.7406 and 92.7317
MOLM-13 cells; Conc 0.0449918
  Cell viability in MOLM-13 cells: 87.2291 and 84.4121 and 81.9827
MOLM-13 cells; Conc 0.134975
  Cell viability in MOLM-13 cells: 84.7339 and 87.0092 and 84.0481
MOLM-13 cells; Conc 0.404926
  Cell viability in MOLM-13 cells: 83.6134 and 73.5361 and 80.3173
MOLM-13 cells; Conc 1.21478
  Cell viability in MOLM-13 cells: 75.0522 and 81.9691 and 77.2827
MOLM-13 cells; Conc 3.64433
  Cell viability in MOLM-13 cells: 84.7767 and 72.5751 and 71.171

## Nc1cccc2c1C(=O)N(C1CCC(=O)NC1=O)C2=O (centres unmarked) [pomalidomide]
[1]
  Cell viability across the panel of AL and MB cell lines: inactive

## Cc1ccc(NC(=O)NCc2ccc3c(c2)CN(C2CCC(=O)NC2=O)C3=O)cc1Cl (centres unmarked) [CC-885]
[1]
  Cell viability across the panel of AL and MB cell lines: cytotoxic to all cell lines in the panel

## O=C1CCC(N2C(=O)c3ccc(NS(=O)(=O)c4ccccc4OC(F)(F)F)cc3C2=O)C(=O)N1 (centres unmarked) [SJ6986]
[1]
  Cell viability across the panel of AL and MB cell lines: cytotoxic to all cell lines in the panel
